From patent publication US20030125252A1, “Compositions and methods for affecting osteogenesis” (priority 2002, published 2003)

Legend:
[1] = test system: MC3T3-E1 cells; assay: Cell death, propidium iodide (PI) staining; assay type: cell-based, mouse; details: for number of PI-stained cells (cell death): MC3T3-E1, single ligand
Procedure: Cultures of MC3T3-E1 were initiated at sub-confluence (1-2×10^4 cells/well) in 24-well plates and allowed to reach confluence prior to the addition of ligands, β-GP and ascorbate. […] Cells were incubated in the presence of the dye for 5 minutes, and images were acquired using epifluorescence with a XF35 filter set (Omega Optical) at low magnification (50×). The number of fluorescent-positive cells per microscopic field (3 mm^2) was counted using Northern Eclipse imaging software.

[2] = test system: MC3T3-E1 cells; assay: Cell viability, MTT assay; assay type: cell-based, mouse; details: for cell viability: MC3T3-E1 early stage cultures, data not shown
Procedure: Cell viability was measured in MC3T3-E1 cells using the 3-[4,5-dimethylthiazol-2-yl]-2,5-diphenyltetrazolium bromide (MTT) assay in 96-well plates as described in the Roche Molecular Biochemicals product information. Briefly, cells were cultured to confluence, at which time various concentrations and combinations of ligands were added to the cultures followed by incubation for 24 to 60 hr. MTT substrate to a final concentration of 0.5 mg/ml was added to each well and the incubation was extended for a further 4 hr. At this time, cells were solubilized overnight in 10% sodium dodecyl sulfate (SDS) in 0.01 M HCl and absorbance was measured at 595 nm using a 650 nm reference wavelength.

[3] = test system: MC3T3-E1 cells; assay: Histological analysis of mineralization (Alizarin Red S) in MC3T3-E1 cultures; assay type: cell-based, mouse; details: for mineralization (Alizarin Red S staining), concentration dependence: MC3T3-E1 mineralizing cultures
Procedure: MC3T3-E1 cells were maintained in Minimum Essential Medium Eagle-modification supplemented with 10% fetal bovine serum (Gibco-BRL) and subcultured as previously described (20). For mineralization, cultures of MC3T3-E1 cells were supplemented with ascorbate (50 μg/ml) and β-glycerolphosphate (β-GP, 10 mM), and the medium was changed every 3 days. These compounds, in addition to ligands, were added to the media once the cultures had reached confluence. MC3T3-637OC stable transfectants were cultured in the same manner and supplemented with active G418 (700 μg/ml). COSP7 cells were cultured in Dulbecco's Modified Eagle's Medium containing 10% FBS and antibiotics. All-trans RA was obtained from Sigma. 4-[E-2-(5,6,7,8-Tetrahydro-5,5,8,8-tetramethyl-2-naphthalenyl)-1-propenyl] benzoic acid (TTNPB), 1,25 VD3 and 9-cis RA were purchased from BioMol.
MC3T3-E1 cells were seeded at 2×10^4 cells/well into 12-well plates, and medium was changed at three-day intervals for a period of 4 weeks. Matrix calcification within the cultures was measured by histological staining with Alizarin Red S (Sigma). Cells were fixed for 10 min in equal parts of 40% formaldehyde and methanol, rinsed briefly in 50% ethanol followed by a rinse in water. Samples were then stained with Alizarin Red S (2% w/v, pH 4.2) for 2 min, followed by a 30-second wash in acetone and allowed to air dry. A Zeiss SV11 dissection microscope connected to a Sony DXC-950 video camera was used to capture digital images. The extent of mineralization for each culture was determined by calculating the percentage of surface area occupied by Alizarin Red S-stained material using Northern Eclipse image analysis software (Empix Imaging Inc.). All images were captured from the center of the well at low magnification, a field which represents ˜65% of the total surface area of the well.

[4] = test system: OC mRNA in MC3T3-E1 cultures; assay: Northern blotting of osteocalcin (OC) mRNA; assay type: cell-based, mouse; details: MC3T3-E1, 1000 nM
Procedure: Total RNA was isolated with TriPure Isolation Reagent (Roche Molecular Biochemicals) from MC3T3-E1 cultures under mineralizing conditions at various times after culture initiation. RNA samples were separated by electrophoresis of 15 μg aliquots on a 1% agarose-formaldehyde gel. RNA was then transferred to a Hybond-N nylon membrane (Amersham-Pharmacia Biotech) and cross-linked by UV irradiation. Blots were pre-hybridized in Ultrahyb (Ambion) at 45° C. for at least 1 hr. A radiolabeled rat cDNA probe to OC (provided by J. E. Aubin, University of Toronto) was synthesized by random priming. Hybridizations were carried out overnight in Ultrahyb at 42° C. Following hybridization, blots were washed twice with 2×SSC, 0.1% SDS containing buffer for 5 min each at 42° C., followed by two washes in 0.1×SSC, 0.1% SDS for 15 min each at 42° C. and exposed to BioMax X-ray film at −80° C. for 24 hr.

[5] = molecular target: T1, RARβ (Homo sapiens, UniProt P10826); details: compared with RARα; cited from earlier work
T1 sequence (P10826 1-455): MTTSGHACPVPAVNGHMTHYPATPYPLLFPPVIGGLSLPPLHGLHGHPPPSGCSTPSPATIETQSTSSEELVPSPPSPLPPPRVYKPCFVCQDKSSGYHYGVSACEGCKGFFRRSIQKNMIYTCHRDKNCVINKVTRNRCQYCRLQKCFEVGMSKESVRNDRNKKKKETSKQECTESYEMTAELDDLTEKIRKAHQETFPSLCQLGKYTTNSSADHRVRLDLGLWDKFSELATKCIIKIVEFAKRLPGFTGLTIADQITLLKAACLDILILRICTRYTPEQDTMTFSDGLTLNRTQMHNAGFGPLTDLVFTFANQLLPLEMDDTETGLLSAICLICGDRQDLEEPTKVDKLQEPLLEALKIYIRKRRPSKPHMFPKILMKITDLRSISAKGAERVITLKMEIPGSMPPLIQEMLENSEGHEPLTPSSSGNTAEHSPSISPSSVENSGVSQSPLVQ

[6] = molecular target: T2, RARα (Homo sapiens, UniProt P10276); details: cited from earlier work
T2 sequence (P10276 1-462): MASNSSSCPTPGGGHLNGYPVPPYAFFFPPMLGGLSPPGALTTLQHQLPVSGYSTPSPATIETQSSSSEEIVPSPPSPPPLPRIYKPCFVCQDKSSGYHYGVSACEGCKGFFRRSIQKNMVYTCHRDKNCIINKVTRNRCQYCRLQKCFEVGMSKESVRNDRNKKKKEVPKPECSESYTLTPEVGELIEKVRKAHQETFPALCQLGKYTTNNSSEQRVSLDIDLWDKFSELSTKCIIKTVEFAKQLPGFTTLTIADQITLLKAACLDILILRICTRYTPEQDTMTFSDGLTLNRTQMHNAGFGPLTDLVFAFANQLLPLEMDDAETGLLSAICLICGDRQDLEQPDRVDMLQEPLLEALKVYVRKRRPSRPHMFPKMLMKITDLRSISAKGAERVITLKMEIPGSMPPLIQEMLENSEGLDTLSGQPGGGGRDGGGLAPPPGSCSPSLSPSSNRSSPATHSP

[7] = molecular target: T3, RARγ (Homo sapiens, UniProt P13631); details: compared with RARα; cited from earlier work
T3 sequence (P13631 1-454): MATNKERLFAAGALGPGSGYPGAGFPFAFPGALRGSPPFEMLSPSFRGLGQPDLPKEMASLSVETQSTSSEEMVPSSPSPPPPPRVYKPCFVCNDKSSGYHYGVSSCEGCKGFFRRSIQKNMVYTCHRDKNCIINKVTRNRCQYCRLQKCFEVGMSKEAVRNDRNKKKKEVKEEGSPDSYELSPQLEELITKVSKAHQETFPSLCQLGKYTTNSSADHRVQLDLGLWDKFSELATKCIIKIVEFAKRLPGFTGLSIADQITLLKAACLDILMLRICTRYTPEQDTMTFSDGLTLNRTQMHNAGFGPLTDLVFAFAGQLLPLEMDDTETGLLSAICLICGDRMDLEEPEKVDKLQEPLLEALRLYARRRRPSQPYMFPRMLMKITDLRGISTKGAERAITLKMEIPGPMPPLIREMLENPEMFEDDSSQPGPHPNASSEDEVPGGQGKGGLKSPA

[8] = test system: normal human osteoblasts; assay: Normal human osteoblast cultures, mineralization (alizarin red S, Von Kossa); assay type: cell-based; details: 1000 nM, versus control cultures
[9] = test system: normal human osteoblasts; assay: Normal human osteoblast cultures, cell death and cell number (PI, Hoechst 33342); assay type: cell-based; details: 1000 nM, 10 days, versus control cultures
Procedure: Normal human osteoblast (NHO) were derived from the long bones of a human donor. The cells were purchased from Clonetics (BioWhittaker Company) and cultured according to their protocols with media and serum obtained from Clonetics. Ligands were added to the cell cultures once the cells had reached confluence. Cells were stained with Hoechst 33342, a DNA stain, to allow visualization of the cell nuclei and allow assessment of cell number (the cell nuclei appear white) (FIGS. 7A-C). FIGS. 7D-F the cells were stained with propidium iodide (a membrane impermeant nucleic acid stain) to allow visualization of dead or dying cells.

C=C1/C(=C\C=C2/CCC[C@]3(C)[C@@H]([C@H](C)CCCC(C)(C)O)CC[C@@H]23)C[C@@H](O)C[C@@H]1O [1,25 VD3, 1α,25-dihydroxy vitamin-D3]
potency in raising PI-stained bodies, compared with the RAR-agonist ([1]; MC3T3-E1, over the concentration range examined): greater potency than the RAR-agonist
number of PI-stained cells (cell death) [1]: greater number of PI-stained bodies
cell viability (MTT) ([2]; MC3T3-E1, 60 hr, individual ligand): decreased cell viability
amount of Alizarin Red-staining ([3]; MC3T3-E1, 28 days, 0.1 nM): decrease in the amount of Alizarin Red-staining
mineralization (Alizarin Red S staining), concentration dependence [3]: concentration-dependent decrease in mineralization

CC1=C(/C=C/C(C)=C\C=C\C(C)=C\C(=O)O)C(C)(C)CCC1 [9-cis RA, 9-cis retinoic acid]
number of PI-stained cells (cell death) [1]: stimulate cell death
cell viability [2]: concentration-dependent decrease in cell viability

Cc1ccc(C2=CC(C)(C)Oc3c(Br)cc(C(=O)Nc4ccc(C(=O)O)c(F)c4)cc32)cc1 [AGN194301, 2-Fluoro-4-[(1-(8-bromo-2,2-dimethyl-4-(4-methylphenyl)-2-H-chromen-6-yl)-methanoyl)-amino]-benzoic acid]
OC expression [4]: stimulated OC expression
culture time after which strong OC mRNA expression became evident ([4]; wild-type cultures 18 days): 12 days
number of PI-positive cells relative to 1,25 VD3 treated culture ([1]; AGN194301 added to 1,25 VD3-treated cultures, 36 hr): less than 20%
appearance of PI-positive cells ([1]; MC3T3-E1, AGN194301 alone): no appreciable effect
affinity for RARβ [5]: lower affinity
affinity for RARα [6]: high affinity
antagonism of RARα [6]: potent antagonist
affinity for RARγ [7]: lower affinity
bone formation relative to control cultures ([3]; 100 nM AGN194301 added to cultures treated with 10 nM 1,25 VD3): ~70%
increase of Alizarin Red S staining over untreated controls ([3]; MC3T3-E1, 28 days, 10 nM): approximately 3 fold
culture surface area stained with Alizarin Red S ([3]; MC3T3-E1, 28 days, 1 μM, control cultures approximately 18%): approximately 95%
mineralization (Alizarin Red S staining), concentration dependence [3]: concentration-dependent increase in Alizarin Red S staining
mineral deposition (Von Kossa, calcium phosphate) ([8]; 19 days of ligand treatment): stimulates mineral deposition

C/C(=C\c1ccc(C(=O)O)cc1)c1ccc2c(c1)C(C)(C)CCC2(C)C [TTNPB, 4-[E-2-(5,6,7,8-Tetrahydro-5,5,8,8-tetramethyl-2-naphthalenyl)-1-propenyl] benzoic acid]
number of PI-stained cells (cell death) [1]: stimulate cell death
cell viability [2]: concentration-dependent decrease in cell viability

CC1=C(/C=C/C(C)=C/C=C/C(C)=C/C(=O)O)C(C)(C)CCC1 [all-trans RA, all-trans retinoic acid]
number of PI-stained cells (cell death) [1]: stimulate cell death
cell death (PI staining) [9]: increased cell death
cell number (Hoechst 33342) [9]: decreased cell number
cell viability [2]: concentration-dependent decrease in cell viability
alizarin red staining ([8]; fifteen day old cultures): reduced alizarin red staining
